Values joined by “and” are separate entries in the source; they are usually repeats but may differ in a detail not shown here. Equal values may be shown once.
What was measured:
[1] = Quantification of nifurtimox and metabolites in human plasma (LC-HRMS), plasma PK; format: in vivo; conditions: fed; for AUC(tlast-∞) (extrapolated proportion): pooled plasma of 6 patients, single oral 120 mg nifurtimox; for AUC, % of total quantified exposure: sum of AUC of nifurtimox and M-1 to M-6 = 100%, single oral 120 mg
Protocol: Plasma samples from timepoints 0, 0.25, 0.5, 0.75, 1, 1.5, 2, 2.5, 3, 4, 6, 8, 12, 15, and 24 h from 6 patients were analyzed. Blood samples were collected into lithium heparinized tubes. Blood cells and plasma were then separated by centrifugation, and the plasma was stored frozen until needed. For the analysis, plasma samples were thawed at room temperature and homogenized by vortex mixing. Equal volumes of plasma from the six patients for each timepoint were combined to a pooled volume of 200 µL. To precipitate protein, a 3-fold volume of acetonitrile/0.5% formic acid (v/v in water) was added to each pooled sample which was thoroughly mixed and then centrifuged at 20,000 g. […] For all analytes, the analytical precision ranged from 0.1% to 8.8%, and the accuracy was 95% to 108%.

OATP1B1 = target: T1, OATP1B1 (Homo sapiens, UniProt Q9Y6L6); assay: Uptake transporter inhibition; format: in vitro ADME; conditions: probe substrate pravastatin
T1 sequence (Q9Y6L6 1-691): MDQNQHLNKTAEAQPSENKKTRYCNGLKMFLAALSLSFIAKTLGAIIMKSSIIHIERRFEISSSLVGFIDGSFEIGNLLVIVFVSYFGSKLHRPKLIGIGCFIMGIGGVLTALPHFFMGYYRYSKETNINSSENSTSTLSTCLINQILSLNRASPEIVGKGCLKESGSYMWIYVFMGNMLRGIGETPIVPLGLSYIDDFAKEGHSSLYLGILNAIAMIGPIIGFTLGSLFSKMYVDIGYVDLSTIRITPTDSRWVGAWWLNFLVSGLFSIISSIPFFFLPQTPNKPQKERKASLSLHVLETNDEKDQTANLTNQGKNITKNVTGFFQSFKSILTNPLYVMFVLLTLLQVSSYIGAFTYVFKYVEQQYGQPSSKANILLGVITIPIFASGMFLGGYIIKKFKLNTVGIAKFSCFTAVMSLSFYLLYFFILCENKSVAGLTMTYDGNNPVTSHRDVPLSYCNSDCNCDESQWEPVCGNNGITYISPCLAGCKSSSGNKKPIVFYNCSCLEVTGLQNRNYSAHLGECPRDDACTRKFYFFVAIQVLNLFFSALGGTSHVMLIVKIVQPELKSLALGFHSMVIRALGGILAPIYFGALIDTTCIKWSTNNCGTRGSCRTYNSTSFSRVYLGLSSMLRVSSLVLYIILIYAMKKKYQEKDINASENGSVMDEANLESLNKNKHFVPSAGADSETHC
Excerpt: (§1) The inhibition of cytochrome P450 (CYP) isoforms and a range of cellular transporters (except multidrug and toxin extrusion [MATE] proteins), as well as the induction of CYP isoforms were investigated using previously described methods.

OCT2 = target: T2, OCT2 (Homo sapiens, UniProt O15244); assay: Uptake transporter inhibition; format: in vitro ADME; conditions: probe substrate 1-methyl-4-phenylpyridinium
T2 sequence (O15244 1-555): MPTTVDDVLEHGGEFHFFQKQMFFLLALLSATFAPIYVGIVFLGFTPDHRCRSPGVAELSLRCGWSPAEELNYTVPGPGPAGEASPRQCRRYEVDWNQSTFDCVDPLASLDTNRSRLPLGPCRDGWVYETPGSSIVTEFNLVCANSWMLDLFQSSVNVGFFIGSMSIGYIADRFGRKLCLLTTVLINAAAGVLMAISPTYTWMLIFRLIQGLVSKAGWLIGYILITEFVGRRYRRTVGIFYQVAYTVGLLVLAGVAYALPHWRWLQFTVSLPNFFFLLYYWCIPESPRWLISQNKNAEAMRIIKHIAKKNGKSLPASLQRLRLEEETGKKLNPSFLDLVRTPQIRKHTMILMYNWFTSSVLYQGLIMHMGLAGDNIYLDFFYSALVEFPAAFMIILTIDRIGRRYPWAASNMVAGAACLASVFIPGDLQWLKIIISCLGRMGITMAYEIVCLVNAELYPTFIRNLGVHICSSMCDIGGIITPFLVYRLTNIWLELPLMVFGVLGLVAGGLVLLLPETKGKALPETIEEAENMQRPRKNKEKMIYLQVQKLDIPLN
Excerpt: as §1

BCRP = target: T3, BCRP (Homo sapiens, UniProt Q9UNQ0); assay: Efflux transporter inhibition; format: in vitro ADME
T3 sequence (Q9UNQ0 1-655): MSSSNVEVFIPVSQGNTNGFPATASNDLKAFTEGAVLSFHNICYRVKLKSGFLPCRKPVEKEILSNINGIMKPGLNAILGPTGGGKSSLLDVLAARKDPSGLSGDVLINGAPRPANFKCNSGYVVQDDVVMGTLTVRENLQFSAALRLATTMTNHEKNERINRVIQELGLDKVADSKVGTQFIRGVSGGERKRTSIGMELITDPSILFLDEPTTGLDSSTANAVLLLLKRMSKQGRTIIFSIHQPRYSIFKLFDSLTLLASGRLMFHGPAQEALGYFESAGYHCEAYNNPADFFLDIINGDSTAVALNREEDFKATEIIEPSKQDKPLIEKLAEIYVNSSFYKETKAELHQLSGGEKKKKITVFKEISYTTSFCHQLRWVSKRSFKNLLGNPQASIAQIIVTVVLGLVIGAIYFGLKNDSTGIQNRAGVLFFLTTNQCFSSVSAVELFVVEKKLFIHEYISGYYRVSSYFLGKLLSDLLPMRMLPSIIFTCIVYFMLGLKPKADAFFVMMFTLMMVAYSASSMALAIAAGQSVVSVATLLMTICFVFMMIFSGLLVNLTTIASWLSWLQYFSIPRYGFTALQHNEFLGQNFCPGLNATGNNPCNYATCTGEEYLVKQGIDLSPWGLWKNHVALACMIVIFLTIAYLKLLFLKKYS
Excerpt: as §1

P-gp = P-gp (Homo sapiens, UniProt P08183); assay: Efflux transporter inhibition; format: in vitro ADME
Excerpt: as §1

[2] = test system: human CYP enzymes (all isoforms tested); assay: CYP inhibition, all isoforms tested (summary); format: in vitro ADME; conditions: reversible and irreversible
Excerpt: as §1

[3] = probe substrate digoxin, for M-4 the highest test concentration of 20 µM was not valid

P-gp, sequence (P08183 whole entry): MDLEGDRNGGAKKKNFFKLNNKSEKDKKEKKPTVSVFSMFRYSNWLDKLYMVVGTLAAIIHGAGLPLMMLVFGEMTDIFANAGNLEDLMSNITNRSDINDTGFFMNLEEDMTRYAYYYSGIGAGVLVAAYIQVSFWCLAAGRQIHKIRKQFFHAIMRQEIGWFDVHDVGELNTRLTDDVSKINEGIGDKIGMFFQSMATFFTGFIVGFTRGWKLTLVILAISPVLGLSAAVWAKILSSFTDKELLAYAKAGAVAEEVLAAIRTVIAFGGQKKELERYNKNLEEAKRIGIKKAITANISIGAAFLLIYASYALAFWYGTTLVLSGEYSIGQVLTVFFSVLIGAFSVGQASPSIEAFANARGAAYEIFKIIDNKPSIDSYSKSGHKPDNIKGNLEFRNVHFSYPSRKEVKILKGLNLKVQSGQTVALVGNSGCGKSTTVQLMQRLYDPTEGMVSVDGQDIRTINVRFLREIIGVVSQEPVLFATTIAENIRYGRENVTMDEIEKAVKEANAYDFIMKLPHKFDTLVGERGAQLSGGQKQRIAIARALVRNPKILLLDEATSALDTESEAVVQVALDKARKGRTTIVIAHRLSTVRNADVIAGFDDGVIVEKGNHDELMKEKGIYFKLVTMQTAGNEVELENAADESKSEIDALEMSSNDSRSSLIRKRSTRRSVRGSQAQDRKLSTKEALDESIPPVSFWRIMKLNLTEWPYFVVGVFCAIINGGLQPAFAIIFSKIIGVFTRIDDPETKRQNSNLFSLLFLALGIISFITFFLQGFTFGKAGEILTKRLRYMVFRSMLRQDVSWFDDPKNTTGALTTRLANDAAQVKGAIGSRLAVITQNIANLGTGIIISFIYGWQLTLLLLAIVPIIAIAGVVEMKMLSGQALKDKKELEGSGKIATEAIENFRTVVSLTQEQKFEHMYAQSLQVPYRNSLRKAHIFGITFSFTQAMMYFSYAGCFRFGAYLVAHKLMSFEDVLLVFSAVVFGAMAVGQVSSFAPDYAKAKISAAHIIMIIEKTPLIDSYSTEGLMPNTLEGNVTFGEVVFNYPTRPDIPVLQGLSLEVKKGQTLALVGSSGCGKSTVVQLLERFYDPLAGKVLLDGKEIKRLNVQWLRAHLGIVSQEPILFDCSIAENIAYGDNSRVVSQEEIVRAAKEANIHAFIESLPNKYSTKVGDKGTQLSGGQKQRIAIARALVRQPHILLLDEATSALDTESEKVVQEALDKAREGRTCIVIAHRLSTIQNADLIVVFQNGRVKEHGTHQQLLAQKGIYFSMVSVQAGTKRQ

SMILES	AUC(tlast-∞) (extrapolated proportion) [1] [%]	AUC, % of total quantified exposure [1]	IC50 (OATP1B1) [µM]	IC50 (OCT2) [µM]	IC50 (BCRP; probe substrate fluvastatin) [µM]	IC50 (BCRP; probe substrate topotecan) [µM]	IC50 (P-gp; [3]) [µM]	IC50 (P-gp; probe substrate dipyridamole) [µM]	IC50 [2] [µM]
CC1CS(=O)(=O)CCN1n1cc(SCC(N)C(=O)O)ccc1=O (centres unmarked) [M-4]	48.4	8.9% and 8.9^a %	> 20	> 5	> 20	> 20	> 5	> 20	> 20
CC1CS(=O)(=O)CCN1N (centres unmarked) [M-6]	21.8	69.4%	> 50	> 30	> 200	> 200	> 200	> 200	> 100
CC1CS(=O)(=O)CCN1/N=C/c1ccc([N+](=O)[O-])o1 (centres unmarked) [Nifurtimox, (E)-N-(3-methyl-1,1-dioxo-1,4-thiazinan-4-yl)-1-(5-nitrofuran-2-yl) methanimine, reference compound]	0.6	16.9%	> 50	> 20	–	> 100	> 100	> 100	> 50

Reference: publication PMC10661964 (Current Drug Metabolism, 2023)
